Reference: patent US20250092010A1, “DIHYDRO-2H-ISOINDOLE ESTER COMPOUND” (Shanghai Maius Pharmaceutical Co. Ltd., priority 2021, published 2025)

Key:
[1] = Pharmacokinetic assays after oral gavage administration to rats; assay type: in vivo, male SD rats; design: Tmax / AUC(0-∞): concentration or dose not given beside the values; AUMC(0-t) / AUMC(0-∞): unit not given here; conditions: for average retention time / time to peak concentration / AUC(0-∞) / AUMC(0-t) / AUMC(0-∞) / CLz/F / Cmax / MRT(0-t) / MRT(0-∞) / Tmax / VRT(0-t) / VRT(0-∞) / t½z / AUC(0-t): active metabolite; for AUC value of the active metabolite equivalent to % of that of the existing drugs: existing drugs administered at the same molar amount; for AUC(0-∞) / AUMC(0-t) / AUMC(0-∞) / CLz/F / Cmax / MRT(0-t) / MRT(0-∞) / Tmax / VRT(0-t) / VRT(0-∞) / t½z / AUC(0-t): plasma, oral gavage, male SD rats; for AUC(0-t): suspension in 0.5% CMC-Na
Description: Instruments: ultra high performance liquid chromatography (Acquity UPLC, Waters) system; triple quadrupole mass spectrometer (Qtrap 5500, Sciex); high-speed refrigerated centrifuge (5430R, Eppendorf).
Chromatography Condition: Column: 2.1×50 mm (1.7 μm, BEH C18, Waters); Column Temperature: 45° C.; Mobile Phase: 0.1% aqueous solution of formic acid (A)/acetonitrile; Gradient: see the table below: […]
Mass Spectrometry Condition: Mode: positive ion multiple reaction monitoring (MRM); Curtain Gas: 45 psi; Gas 1:45 psi; Gas 2:45 psi; Ion Source Temperature: 500° C.; Ion Source Voltage: 5000 V. Precursor ions (Q1), product ions (Q3) and collision energy (CE) of some compounds are listed in the table below:
Experimental Animals: male SD rats, 6 in each group, weighing 200-220 grams, fasting overnight before experimentation.
Preparation of Drugs: lenalidomide, as a reference drug, and the test compounds (Compounds 1-10) were accurately weighed and dispensed in 0.5% CMC-Na solutions, resulting in suspensions.
Drug Administration to and Blood Collection from Animals: the drugs were oral gavage administered to the rats, and 100-μl blood samples were taken before administration and 10 min, 20 min, 40 min, 1 h, 1.5 h, 2 h, 3 h, 5 h, 8 h, 12 h, 21 h, 24 h and 30 h after administration. Each sample was placed in an ice bath, centrifuged for plasma collection, frozen and stored.
Plasma drug concentration Data and Calculation of Pharmacokinetic Parameters: Plasma drug concentration data was processed using MultiQuan 3.0 (Sciex), and pharmacokinetic parameters were calculated using DAS 2.0 software. Plasma drug concentrations were measured in ug/L.

[2] = patients, cited from earlier work

Row | SMILES | average retention time [1] | time to peak concentration [1] | AUC value of the active metabolite equivalent to % of that of the existing drugs [1] | AUC(0-∞) [1] | AUMC(0-t) [1] | AUMC(0-∞) [1] | CLz/F [1] | Cmax [1] | MRT(0-t) [1] | MRT(0-∞) [1] | Tmax [1] | VRT(0-t) [1] | VRT(0-∞) [1] | t½z [1] | AUC(0-t) [1] | myelosuppression grade ([2]; 50 mg per day, 28th day of treatment) | maximum tolerated dose (MTD) ([2]; clinical study)
1 | CC(C)OC(=O)Nc1cccc2c1CN(C1CCC(=O)NC1=O)C2=O (centres unmarked) [Compound 1] | 4.5 h | 0.8 h | 45% | 3889.6 ± 435.6 ng·h/mL | 32705.8 ± 3125.3 | 33484.2 ± 3040.7 | 71.7 ± 17 mL/min/kg | 543.6 ± 68.5 ng/mL | 4.5 ± 0.7 h | 4.6 ± 0.6 h | 0.8 ± 0.4 h | 13 ± 2.2 h^2 | 14.3 ± 2.1 h^2 | 2.8 ± 0.3 h | 3822 ± 424.5 ng·h/mL | – | –
2 | CCCCCCOC(=O)Nc1cccc2c1CN(C1CCC(=O)NC1=O)C2=O (centres unmarked) [Compound 5] | – | – | – | 1257 ± 209.6 ng·h/mL | 8749 ± 352.6 | 8954 ± 336.4 | 70 ± 15 mL/min/kg | 158 ± 31.1 ng/mL | 4 ± 0.5 h | 1.1 ± 0.6 h | 4 ± 0.5 h | 11 ± 1.8 h^2 | 11.8 ± 2.1^ h^2 | 3.0 ± 0.3 h | 1022 ± 214.5 ng·h/mL | – | –
3 | Cc1oc(=O)oc1COC(=O)Nc1cccc2c1CN(C1CCC(=O)NC1=O)C2=O (centres unmarked) [Compound 6] | 8.6 h | 7 h | 61% | 5229.3 ± 755.1 ng·h/mL | 44683.6 ± 4956.6 | 45199.7 ± 4922.6 | 98.3 ± 17 mL/min/kg | 405.4 ± 89.8 ng/mL | 8.6 ± 0.6 h | 8.7 ± 0.6 h | 7 ± 1.5 h | 20 ± 2.5 h^2 | 21.8 ± 2.8 h^2 | 2.9 ± 0.4 h | 5217 ± 754.8 ng·h/mL | – | –
4 | CCCCCCCCOC(=O)Nc1cccc2c1CN(C1CCC(=O)NC1=O)C2=O (centres unmarked) [Compound 7] | – | – | – | 584.3 ± 50.3 ng·h/mL | 3965 ± 415.1 | 4123 ± 446.1 | 68.3 ± 18.3 mL/min/kg | 135 ± 23.0 ng/mL | 3.8 ± 0.7 h | 3.8 ± 0.8 h | 3.5 ± 0.8 h | 10 ± 1.3 h^2 | 10.5 ± 1.3 h^2 | 3.1 ± 0.2 h | 503.2 ± 42.6 ng·h/mL | – | –
5 | CCCCCCCCCCCOC(=O)Nc1cccc2c1CN(C1CCC(=O)NC1=O)C2=O (centres unmarked) [Compound 8] | – | – | – | 421.5 ± 55.6 ng·h/mL | 3596 ± 401.3 | 3689 ± 411.6 | 63.3 ± 15 mL/min/kg | 105.3 ± 24.1 ng/mL | 3.8 ± 0.5 h | 3.9 ± 0.5 h | 3.8 ± 1.1 h | 9.8 ± 1.5 h^2 | 9.9 ± 1.6 h^2 | 2.9 ± 0.3 h | 489.4 ± 50.3 ng·h/mL | – | –
6 | CCCCCCCCCCCCCCCCCCOC(=O)Nc1cccc2c1CN(C1CCC(=O)NC1=O)C2=O (centres unmarked) [Compound 9] | – | – | – | 456 ± 48.0 ng·h/mL | 3126 ± 298.1 | 3360 ± 318.6 | 70 ± 16.7 mL/min/kg | 95.6 ± 22.2 ng/mL | 3.5 ± 0.6 h | 3.6 ± 0.7 h | 4.1 ± 0.8 h | 10 ± 1.5 h^2 | 10.2 ± 1.5 h^2 | 3.0 ± 0.4 h | 402.5 ± 51.6 ng·h/mL | – | –
7 | CCC(CC)COC(=O)Nc1cccc2c1CN(C1CCC(=O)NC1=O)C2=O (centres unmarked) [Compound 10] | – | – | – | 1765 ± 226.3 ng·h/mL | 13691 ± 587.2 | 14002 ± 589.6 | 65 ± 13 mL/min/kg | 163.2 ± 26.4 ng/mL | 5.2 ± 0.7 h | 5.2 ± 0.7 h | 5 ± 0.9 h | 14 ± 2.1 h^2 | 14.2 ± 2.2 h^2 | 3.1 ± 0.5 h | 1568 ± 205.4 ng·h/mL | – | –
8 | Nc1cccc2c1CN(C1CCC(=O)NC1=O)C2=O (centres unmarked) [reference drug, lenalidomide] | – | – | – | – | – | – | – | – | – | – | – | – | – | – | – | Grade 3 myelosuppression | 25 mg per day
